Assay results: patent US8138220B2, “[2-(6-fluoro-1H-indol-3-ylsulfanyl)benzyl]methyl amine for the treatment of affective disorders” (H. Lundbeck A/S, priority 2006, dated 2012)

Columns and labels:
[1] = Solubility in water; type: physicochemical; conditions: well-defined 1:1 salts, in words
[2] = tested on: Male C57B1/6 mice; experiment: Stress-induced hyperthermia; type: in vivo, mouse; conditions: chlordiazepoxide 10 mg/kg, one hour before
Method: (§1) In all experiments, animals were maintained on a 12:12 light-dark cycle with lights on at 0600 h. Food and water were available ad libitum
The stress-induced hyperthermia (SIH) test is based upon the principle that, like other mammals, mice have a natural hyperthermic response to stress. In this paradigm, the stressor is having the rectal temperature taken. This physiological response is considered to reflect the anxiety level of the animal, and is attenuated by pretreatment with anxiolytic drugs such as benzodiazepines.
Male C57B1/6 mice (18-21 g) were housed 5/cage until 1 day before the experiment, at which time they were brought to the testing room and singly-housed. Testing was conducted over a two-day period from 9-12 am. Mice received vehicle, chlordiazepoxide (10 mg/kg), or 0.02, 0.08, or 0.32 mg/kg Test compound (s.c.). One hour later, core temperature was measured with a rectal probe (T1) and each animal was returned to its cage. Ten minutes later, a second reading was obtained (T2). The difference between the two readings (T2−T1) was calculated as the measure of stress-induced hyperthermia.

[3] = tested on: Male NMRI mice; experiment: Antimanic effects, sensitized amphetamine response in mice; type: in vivo, mouse; conditions: for induced locomotor activity: amphetamine-sensitised mice, amphetamine challenge 1.25 mg/kg; for baseline activity: tested doses, each alone
Method: (§2) In all experiments, animals were maintained on a 12:12 light-dark cycle with lights on at 06:00 h. Food and water was available ad libitum. Animals were taken to the experimental laboratory in the afternoon the day before the experiment was conducted. All drug doses are listed as mg salt pr. kg. Blood-samples were collected within 30 minutes after the testing was finalised.
Repeated intermittent administration of amphetamine causes development of a sensitised response to a subsequent amphetamine challenge. This phenomenon has been proposed to model the chronic and progressive nature of bipolar disorder.
Animals: Male NMRI mice weighing 19-21 g were supplied from Harlan, the Netherland's. The animals were housed 4 pr. cage in makrolon cages (20×35 cm) with two plastic houses and nesting material for enrichment. The animals had 5 days adaptation to the animal-facility prior to the initiation the experiment.
(§3) Equipment: Makrolon cages (20×35 cm) placed in quadrates equipped with 5×8 infrared light sources and photocells spaced by 4 cm were used to record the locomotor activity of the animals. The light beams cross the cage 1.8 cm above the bottom of the cage. Recording of a motility count required interruption of adjacent light beams, thus avoiding counts induced by stationary movements of the mice.
Experimental set-up: The animals were pre-treated with either amphetamine sulphate 2.50 mg/kg (10 ml/kg s.c.) or vehicle for 5 consecutive days. After 11+/−1 days withdrawal period the animals were injected with test-drug or vehicle injection. Lithium chloride was dissolved in distilled water and injected s.c. (6 ml/kg) in dose of 40 mg/kg (0.94 mEq/kg), 30 minutes before testing. Test compound ([2-(6-fluoro-1H-indol-3-ylsulfanyl)benzyl]methyl amine L-(+)-hydrogen tatrate) was dissolved in 10% hydroxypropyl-beta-cyclodextrin and injected s.c. in doses of 0.08 and 0.4 mg/kg 60 minutes before testing. Owing to Test compound's lower affinity to rodent 5HT2A receptor with respect to the human receptor, the tested doses of Test compound was combined with a dose of MDL 100907 ([R-(+)-a-(2,3-dimethoxyphenyl)-1-[2-(4-fluorophenylethyl)]-4-piperidinem ethanol]) that achieves full occupancy of this receptor. 30 minutes before testing the animals were placed in the activity boxes for habituation. After the habituation period the mice were injected with a low dose amphetamine challenge (1.25 mg/kg or saline, 10 ml/kg) and the locomotor activity were measured for 60 minutes. The mice were dosed after the average weight of 16 animals.

[4] = tested on: Male Wistar rats; experiment: Antimanic effect, amphetamine and chlordiazepoxide induced locomotor activity in rats; type: in vivo, rat; conditions: for induced locomotor activity: amphetamine 1.2 mg/kg + chlordiazepoxide 10.0 mg/kg; for baseline activity: tested doses
Method: Increased locomotor activity induced by an appropriate combination of amphetamine and chlordiazepoxide is a proposed animal model of mania. The induced locomotor activity can be reversed by Lithium.
as §2
Animals: Male Wistar rats weighing 160-175 g were supplied from Harlan, the Netherlands. The animals were housed 4 pr. cage in makrolon cages (20×35 cm) with one plastic house for enrichment. The rats had 5 days adaptation to the animal facility prior to the initiation of the experiment.
as §3, with “a U-frame” for “quadrates”, “equipped longitudinally” for “equipped”, “4” for “5×8”, “photocells” for “photocells spaced by 4 cm”, “4” for “1.8”, “rat. A thin layer of standard bedding material coved the bottom of the cage.” for “mice.”
Chlordiazepoxide (10.0 mg/kg) was dissolved in 10% hydroxypropyl-beta-cyclodextrin and injected s.c. (5 ml/kg) immediately after the amphetamine injection.

[5] = tested on: Male BALB/cByJ mice; experiment: Mouse marble burying; type: in vivo; conditions: mice, 0.625, 1.25 and 5 mg/kg s.c., 30 min before 30-minute test
Method: as §1
For rodents, burying functions as a defensive behavior, used to lessen the intensity of a threat or the animal's vulnerability to it. Researchers have investigated defensive burying behaviour using a variety of threatening objects such as electrified prods and unpleasant tasting foods and liquids. Benign objects such as marbles and food pellets also elicit burying behaviour. Mice probably bury harmless objects because they are novel, and are therefore perceived as threatening. Acute administration of both anxiolytic and antidepressant drugs reduce the number of marbles buried in this paradigm.
Male BALB/cByJ mice (22-28 g) were housed 5/cage. Two experiments were performed. Mice received vehicle or 0.625, 1.25, or 5 mg/kg (s.c.) Test compound (see example 12). 30 minutes after injection, animals were placed individually in cages containing 20 marbles (2 rows of 10) on top of 1.5 inches of Aspen bedding. After a 30-minute test period, mice were returned to their home cages, and the number of visible marbles (less than ⅔ covered with bedding) were counted and subtracted from 20 to give number of marbles buried.

For `CC(C)(O)C(=O)O` [2-hydroxy isobutyric acid], the solubility [1] was “relatively high solubility”.
With `CNC1=Nc2ccc(Cl)cc2C(c2ccccc2)=[N+]([O-])C1` [CDP, chlordiazepoxide, reference compound] the “stress-induced hyperthermia (T2−T1)” value [2] was “significantly reduced”.
In the case of `CNCc1ccccc1Sc1c[nH]c2cc(F)ccc12.O=C(O)C(O)C(O)C(=O)O` [Test compound, [2-(6-fluoro-1H-indol-3-ylsulfanyl)benzyl]methyl amine L-(+)-hydrogen tatrate], the induced locomotor activity ([3]; Test compound 0.08 mg/kg and 0.4 mg/kg s.c. alone) was “no effect”, the “baseline activity in saline pre-treated animals” value ([3]; mice, Test compound 0.08 and 0.4 mg/kg combined with MDL 100907 0.3 mg/kg) was “significantly lowered” and the baseline activity ([3]; mice) was “no significant effect”. The induced locomotor activity ([4]; Test compound 0.4 mg/kg combined with MDL 100907 0.3 mg/kg) was “significant attenuation”, the induced locomotor activity ([4]; Test compound 0.4 mg/kg s.c. alone) was “tendency to increase the locomotor activity induced activity, but not significantly” and the baseline activity [4] was “no effect”. For the same molecule, the “numbers of marbles buried” value [5] was “significantly and equivalently reduced”.
In the case of `COc1cccc([C@H](O)C2CCN(CCc3ccc(F)cc3)CC2)c1OC` [MDL 100907, [R-(+)-a-(2,3-dimethoxyphenyl)-1-[2-(4-fluorophenylethyl)]-4-piperidinemethanol], reference compound], the induced locomotor activity ([3]; MDL 100907 0.3 mg/kg) was “significantly decreased”, the baseline activity ([3]; mice) was “no significant effect” and the induced locomotor activity ([4]; MDL 100907 0.3 mg/kg) was “significantly reversed”. The baseline activity [4] was “no effect”.
For `CNCc1ccccc1Sc1c[nH]c2cc(F)ccc12.O=C(O)C(O)C(O)C(=O)O` [beta form of the L(+) hydrogen tartrate salt] [[2-(6-Fluoro-1H-indol-3-ylsulfanyl)-benzyl]-methyl-amine L-(+)-hydrogen tartrate], the “water absorbed when exposed to high relative humidity” value was “about 0.6%”.
In the case of `CNCc1ccccc1Sc1c[nH]c2cc(F)ccc12.O=C(O)C(O)C(O)C(=O)O` [alpha form of the L(+) hydrogen tartrate salt] [[2-(6-Fluoro-1H-indol-3-ylsulfanyl)-benzyl]-methyl-amine L-(+)-hydrogen tartrate], the “water absorbed when exposed to high relative humidity” value was under 0.1%.
